Test system: rats
Assay: Induction of diabetes by intravenous streptozotocin
Type: in vivo, rat
Conditions: 50 mg/kg intravenous injection
Experimental: Diabetes was induced by intravenous injection with 50 mg/kg streptozotocin (STZ), which reduced pancreatic insulin content by 95%. One week later, STZ diabetic rats (of weight 200–250 g) were administered either the vehicle alone as a control (labeled CON in FIG. 1), or were administered a combination of human gastrin 17 (4 μg/kg) and human TGFα (4 μg/kg) peptides (labeled GAS/TGF) by once-daily, intraperitoneal injections for 12 days. At 1, 2, 4 and 8 weeks after treatment, intraperitoneal glucose tolerance tests (IPGTT) were performed, to measure both blood glucose levels, and plasma insulin levels, in response to a challenge amount of glucose.

`CN(N=O)C(=O)N[C@H]1C(O)O[C@H](CO)[C@@H](O)[C@@H]1O` (mixture of isomers) [streptozotocin] was tested, and the “reduction of pancreatic insulin content” value was 95%.

— patent US6992060B2, “Prolonged efficacy of islet neogenesis therapy methods with a gastrin/CCK receptor ligand and an EGF receptor ligand composition in subjects with preexisting diabetes” (Waratah Pharmaceuticals, Inc., priority 2001, dated 2006)
